Reference: paper PMC5218480 (PLoS ONE, 2017)

Test system: MV-4-11 cells
Test: Gene expression microarray analysis (Affymetrix PrimeView) and GSEA
Type: cell-based, human
Set-up: RFU PODN (11730768_x_at) / Fold change /veh PODN (11730768_x_at) / RFU LINC00158 (11744669_a_at) / Fold change /veh LINC00158 (11744669_a_at) / RFU DUSP10 (11751237_a_at) / Fold change /veh DUSP10 (11751237_a_at) / RFU ID3 (11757404_x_at) / Fold change /veh ID3 (11757404_x_at) / RFU PLEKHG5 (11737974_s_at) / Fold change /veh PLEKHG5 (11737974_s_at) / RFU LRRC4B (11730491_at) / Fold change /veh LRRC4B (11730491_at) / RFU GIMAP4 (11747438_a_at) / Fold change /veh GIMAP4 (11747438_a_at) / RFU KRT8 (11758183_x_at) / Fold change /veh KRT8 (11758183_x_at) / RFU CNN1 (11734310_a_at) / Fold change /veh CNN1 (11734310_a_at) / RFU VPS37D (11726825_at) / Fold change /veh VPS37D (11726825_at) / RFU C10orf10 (11716522_x_at) / Fold change /veh C10orf10 (11716522_x_at) / RFU KIR2DL2 /// KIR2DL4 /// KIR2DL5A /// KIR2DL5B /// KIR2DS1 /// KIR2DS2 /// KIR2DS3 /// KIR2DS4 /// KIR3DL3 /// KIR3DL3 /// KIR3DS1 (11738374_at) / Fold change /veh KIR2DL2 /// KIR2DL4 /// KIR2DL5A /// KIR2DL5B /// KIR2DS1 /// KIR2DS2 /// KIR2DS3 /// KIR2DS4 /// KIR3DL3 /// KIR3DL3 /// KIR3DS1 (11738374_at) / RFU C1QL1 (11718748_at) / Fold change /veh C1QL1 (11718748_at) / RFU TMPRSS4 (11747572_a_at) / Fold change /veh TMPRSS4 (11747572_a_at) / RFU HAMP (11756126_x_at) / Fold change /veh HAMP (11756126_x_at) / RFU RNFT2 (11725882_a_at) / Fold change /veh RNFT2 (11725882_a_at) / RFU NR4A2 (11747474_a_at) / Fold change /veh NR4A2 (11747474_a_at) / RFU ABCC12 (11746883_a_at) / Fold change /veh ABCC12 (11746883_a_at) / RFU TMEM136 (11760407_x_at) / Fold change /veh TMEM136 (11760407_x_at) / RFU CLDN22 /// WWC2 (11732394_at) / Fold change /veh CLDN22 /// WWC2 (11732394_at) / RFU HLA-DPB1 (11760878_x_at) / Fold change /veh HLA-DPB1 (11760878_x_at) / RFU SPINT1 (11716480_a_at) / Fold change /veh SPINT1 (11716480_a_at) / RFU GAP43 (11754022_s_at) / Fold change /veh GAP43 (11754022_s_at) / RFU A4GNT (11735810_at) / Fold change /veh A4GNT (11735810_at) / RFU PRB3 (11715151_x_at) / Fold change /veh PRB3 (11715151_x_at) / RFU TUBB4B (11761932_at) / Fold change /veh TUBB4B (11761932_at) / RFU CAPN14 (11732068_a_at) / Fold change /veh CAPN14 (11732068_a_at) / RFU TMCC2 (11721928_a_at) / Fold change /veh TMCC2 (11721928_a_at) / RFU IRGQ (11745062_a_at) / Fold change /veh IRGQ (11745062_a_at) / RFU FAM174B (11720279_a_at) / Fold change /veh FAM174B (11720279_a_at) / RFU TMPRSS4 (11748680_a_at) / Fold change /veh TMPRSS4 (11748680_a_at) / RFU FAM212B (11763350_a_at) / Fold change /veh FAM212B (11763350_a_at) / RFU PLEKHG5 (11743358_a_at) / Fold change /veh PLEKHG5 (11743358_a_at) / RFU ZSCAN30 (11745921_a_at) / Fold change /veh ZSCAN30 (11745921_a_at) / RFU CMKLR1 (11741424_a_at) / Fold change /veh CMKLR1 (11741424_a_at) / RFU LOC101060620 /// MAPK8IP1 (11723275_at) / Fold change /veh LOC101060620 /// MAPK8IP1 (11723275_at) / RFU SPTSSB (11747773_x_at) / Fold change /veh SPTSSB (11747773_x_at) / RFU PRSS12 (11739890_at) / Fold change /veh PRSS12 (11739890_at) / RFU BIN1 (11741810_x_at) / Fold change /veh BIN1 (11741810_x_at) / RFU WNT11 (11732464_a_at) / Fold change /veh WNT11 (11732464_a_at) / RFU C10orf10 (11716521_a_at) / Fold change /veh C10orf10 (11716521_a_at) / RFU C5orf56 (11738089_at) / Fold change /veh C5orf56 (11738089_at) / RFU CYB561 (11721691_x_at) / Fold change /veh CYB561 (11721691_x_at) / RFU ANKRD19P (11752326_a_at) / Fold change /veh ANKRD19P (11752326_a_at) / RFU OR2T12 /// OR2T33 /// OR2T8 (11738714_s_at) / Fold change /veh OR2T12 /// OR2T33 /// OR2T8 (11738714_s_at) / RFU VCAN (11748164_a_at) / Fold change /veh VCAN (11748164_a_at) / RFU JSRP1 (11732532_at) / Fold change /veh JSRP1 (11732532_at) / RFU KRTAP10-11 (11738290_x_at) / Fold change /veh KRTAP10-11 (11738290_x_at) / RFU MYO3A (11730013_a_at) / Fold change /veh MYO3A (11730013_a_at) / RFU EBF3 (11725865_a_at) / Fold change /veh EBF3 (11725865_a_at) / RFU CAMK2N1 (11719241_x_at) / Fold change /veh CAMK2N1 (11719241_x_at) / RFU C5orf56 (11738088_a_at) / Fold change /veh C5orf56 (11738088_a_at) / RFU OLFML3 (11715873_a_at) / Fold change /veh OLFML3 (11715873_a_at) / RFU LOC100653217 /// NTM (11731650_a_at) / Fold change /veh LOC100653217 /// NTM (11731650_a_at) / RFU MAPK11 (11762145_a_at) / Fold change /veh MAPK11 (11762145_a_at) / RFU FIZ1 (11724087_x_at) / Fold change /veh FIZ1 (11724087_x_at) / RFU OASL (11726364_x_at) / Fold change /veh OASL (11726364_x_at) / RFU SOX15 (11748057_x_at) / Fold change /veh SOX15 (11748057_x_at) / RFU CD79A (11719716_a_at) / Fold change /veh CD79A (11719716_a_at) / RFU HIST1H1D (11736915_at) / Fold change /veh HIST1H1D (11736915_at) / RFU CASKIN2 (11723855_a_at) / Fold change /veh CASKIN2 (11723855_a_at) / RFU LOC730098 (11760151_x_at) / Fold change /veh LOC730098 (11760151_x_at) / RFU OR4N2 (11742367_at) / Fold change /veh OR4N2 (11742367_at) / RFU PRRT2 (11749266_a_at) / Fold change /veh PRRT2 (11749266_a_at) / RFU SNX32 (11753110_a_at) / Fold change /veh SNX32 (11753110_a_at) / RFU CDHR5 (11726645_a_at) / Fold change /veh CDHR5 (11726645_a_at) / RFU RCAN1 (11760418_a_at) / Fold change /veh RCAN1 (11760418_a_at) / RFU FAM167A (11723789_a_at) / Fold change /veh FAM167A (11723789_a_at) / RFU FAM26E (11764081_at) / Fold change /veh FAM26E (11764081_at) / RFU ISYNA1 (11749810_s_at) / Fold change /veh ISYNA1 (11749810_s_at) / RFU ACY1 (11761880_at) / Fold change /veh ACY1 (11761880_at) / RFU 11764098_at / Fold change /veh 11764098_at / RFU SAMD14 (11745864_x_at) / Fold change /veh SAMD14 (11745864_x_at) / RFU NPB (11741838_a_at) / Fold change /veh NPB (11741838_a_at) / RFU TMPRSS6 (11731388_a_at) / Fold change /veh TMPRSS6 (11731388_a_at) / RFU KRTAP10-2 (11738614_at) / Fold change /veh KRTAP10-2 (11738614_at) / RFU ARHGAP8 /// PRR5-ARHGAP8 (11727945_x_at) / Fold change /veh ARHGAP8 /// PRR5-ARHGAP8 (11727945_x_at) / RFU KRTAP5-7 /// NADSYN1 (11734609_at) / Fold change /veh KRTAP5-7 /// NADSYN1 (11734609_at) / RFU RASL12 (11751679_a_at) / Fold change /veh RASL12 (11751679_a_at) / RFU CDKN2B (11736163_a_at) / Fold change /veh CDKN2B (11736163_a_at) / RFU PRF1 (11729649_at) / Fold change /veh PRF1 (11729649_at) / RFU, ZNF638 /// ZNF638-IT1 / Fold change vs veh, ZNF638 /// ZNF638-IT1 / RFU, PANK3 / Fold change vs veh, PANK3 / RFU, SH3YL1 / Fold change vs veh, SH3YL1 / RFU, ZEB2 / Fold change vs veh, ZEB2 / RFU, NRIP1 / Fold change vs veh, NRIP1 / RFU, PTTG1IP / Fold change vs veh, PTTG1IP / RFU, CAPN2 / Fold change vs veh, CAPN2 / RFU, MED14 / Fold change vs veh, MED14 / RFU, SNORA58 / Fold change vs veh, SNORA58 / RFU, C1orf63 / Fold change vs veh, C1orf63 / RFU, LRRFIP1 / Fold change vs veh, LRRFIP1 / RFU, NDUFAF7 / Fold change vs veh, NDUFAF7 / RFU, SLC12A2 / Fold change vs veh, SLC12A2 / RFU, IBTK / Fold change vs veh, IBTK / RFU, ESF1 / Fold change vs veh, ESF1 / Fold change vs veh, TMEM50B / RFU, TAOK1 / Fold change vs veh, TAOK1 / RFU, ACBD3 / Fold change vs veh, ACBD3 / RFU, TMA16 / Fold change vs veh, TMA16 / RFU, RWDD3 / Fold change vs veh, RWDD3 / RFU, BCAT1 / Fold change vs veh, BCAT1 / RFU, EDEM3 / Fold change vs veh, EDEM3 / RFU, TMEM33 / Fold change vs veh, TMEM33 / RFU, WDR75 / Fold change vs veh, WDR75 / RFU, AHCTF1 / Fold change vs veh, AHCTF1 / RFU, TFRC / Fold change vs veh, TFRC / RFU, ZDHHC17 / Fold change vs veh, ZDHHC17 / RFU, NOM1 / Fold change vs veh, NOM1 / RFU, ARL8B / Fold change vs veh, ARL8B / RFU, ZBTB11 / Fold change vs veh, ZBTB11 / RFU, TAMM41 / Fold change vs veh, TAMM41 / RFU, KIAA1704 /// LOC100996395 / Fold change vs veh, KIAA1704 /// LOC100996395 / RFU, ING1 / Fold change vs veh, ING1 / RFU, TRMT61B / Fold change vs veh, TRMT61B / RFU, FUBP3 / Fold change vs veh, FUBP3 / RFU, TP53 / Fold change vs veh, TP53 / RFU, TNKS2 / Fold change vs veh, TNKS2 / RFU, ZFP14 / Fold change vs veh, ZFP14 / RFU, ACTR2 / Fold change vs veh, ACTR2 / RFU, PPP3R1 / Fold change vs veh, PPP3R1 / RFU, PIK3R1 / Fold change vs veh, PIK3R1 / RFU, HNRNPA1 / Fold change vs veh, HNRNPA1 / RFU, RNF170 / Fold change vs veh, RNF170 / RFU, ZNF28 / Fold change vs veh, ZNF28 / RFU, RNGTT / Fold change vs veh, RNGTT / RFU, OGT / Fold change vs veh, OGT / RFU, BRD1 / Fold change vs veh, BRD1 / RFU, MARS / Fold change vs veh, MARS / RFU, ZNF655 / Fold change vs veh, ZNF655 / RFU, FAHD1 / Fold change vs veh, FAHD1 / RFU, BDP1 / Fold change vs veh, BDP1 / RFU, LRRCC1 / Fold change vs veh, LRRCC1 / RFU, ARID1A / Fold change vs veh, ARID1A / RFU, ZNF146 / Fold change vs veh, ZNF146 / RFU, ZNF330 / Fold change vs veh, ZNF330 / RFU, GPN3 / Fold change vs veh, GPN3 / RFU, C9orf123 / Fold change vs veh, C9orf123 / RFU, N4BP2L2 / Fold change vs veh, N4BP2L2 / RFU, ARFIP1 / Fold change vs veh, ARFIP1 / RFU, FAM179B / Fold change vs veh, FAM179B / RFU, BCL10 / Fold change vs veh, BCL10 / RFU, UHRF1BP1L / Fold change vs veh, UHRF1BP1L / RFU, BET1 / Fold change vs veh, BET1 / RFU, CNOT2 / Fold change vs veh, CNOT2 / RFU, ZNF268 / Fold change vs veh, ZNF268 / Fold change vs veh, ZNF507 / RFU, DGCR2 / Fold change vs veh, DGCR2 / RFU, WDSUB1 / Fold change vs veh, WDSUB1 / Fold change vs veh, HSP90B1 /// MIR3652 / RFU, ADSS / Fold change vs veh, ADSS / RFU, GK / Fold change vs veh, GK / RFU, ZNF148 / Fold change vs veh, ZNF148 / RFU, TAF9 / Fold change vs veh, TAF9 / RFU, SLC1A5 / Fold change vs veh, SLC1A5 / RFU, SLMO2 / Fold change vs veh, SLMO2 / RFU, ABCC4 / Fold change vs veh, ABCC4 / RFU, LOC101060439 /// RAP1B / Fold change vs veh, LOC101060439 /// RAP1B / RFU, RFX7 / Fold change vs veh, RFX7 / RFU, GTPBP10 / Fold change vs veh, GTPBP10 / RFU, CNEP1R1 / Fold change vs veh, CNEP1R1 / RFU, BIVM-ERCC5 /// ERCC5 / Fold change vs veh, BIVM-ERCC5 /// ERCC5 / RFU, ILF3 / Fold change vs veh, ILF3 / RFU 11762660_at / Fold change /veh 11762660_at / RFU VCAN (11757783_s_at) / Fold change /veh VCAN (11757783_s_at) / RFU DDX43 (11728927_at) / Fold change /veh DDX43 (11728927_at) / RFU KRT8 (11758188_x_at) / Fold change /veh KRT8 (11758188_x_at) / RFU NKD1 (11759106_at) / Fold change /veh NKD1 (11759106_at) / RFU SRD5A1 (11742802_a_at) / Fold change /veh SRD5A1 (11742802_a_at) / RFU TPSAB1 /// TPSB2 (11721975_s_at) / Fold change /veh TPSAB1 /// TPSB2 (11721975_s_at) / RFU GSTM3 (11746129_a_at) / Fold change /veh GSTM3 (11746129_a_at) / RFU IL23R (11737362_x_at) / Fold change /veh IL23R (11737362_x_at) / RFU TMEM51 (11727254_a_at) / Fold change /veh TMEM51 (11727254_a_at) / RFU PIWIL2 (11732686_x_at) / Fold change /veh PIWIL2 (11732686_x_at) / RFU ORM1 (11744905_x_at) / Fold change /veh ORM1 (11744905_x_at) / RFU CCDC152 (11743942_at) / Fold change /veh CCDC152 (11743942_at) / RFU ECM1 (11717891_a_at) / Fold change /veh ECM1 (11717891_a_at) / RFU IL23R (11748794_a_at) / Fold change /veh IL23R (11748794_a_at) / RFU TNFAIP8L3 (11732012_x_at) / Fold change /veh TNFAIP8L3 (11732012_x_at) / RFU MBOAT4 (11741988_at) / Fold change /veh MBOAT4 (11741988_at) / RFU 11764193_at / Fold change /veh 11764193_at / RFU TMEM53 (11763286_at) / Fold change /veh TMEM53 (11763286_at) / RFU MAGEB2 (11727129_at) / Fold change /veh MAGEB2 (11727129_at) / RFU TMEM200A (11744735_a_at) / Fold change /veh TMEM200A (11744735_a_at) / RFU CCDC152 (11751479_a_at) / Fold change /veh CCDC152 (11751479_a_at) / RFU FAM211A (11726209_a_at) / Fold change /veh FAM211A (11726209_a_at) / RFU RGS16 (11746705_a_at) / Fold change /veh RGS16 (11746705_a_at) / RFU VCAN (11755009_s_at) / Fold change /veh VCAN (11755009_s_at) / RFU RHOB (11743442_s_at) / Fold change /veh RHOB (11743442_s_at) / RFU RGS16 (11720943_a_at) / Fold change /veh RGS16 (11720943_a_at) / RFU RGS16 (11720944_at) / Fold change /veh RGS16 (11720944_at) / RFU, VPS4B / Fold change vs veh, VPS4B / RFU, CREB1 / Fold change vs veh, CREB1 / RFU, DNAJC13 / Fold change vs veh, DNAJC13 / RFU, GNAQ / Fold change vs veh, GNAQ / RFU, CDK5R1 / Fold change vs veh, CDK5R1 / RFU, ZRANB3 / Fold change vs veh, ZRANB3 / RFU, CUL4A / Fold change vs veh, CUL4A / RFU, CCNY / Fold change vs veh, CCNY / RFU, UFL1 / Fold change vs veh, UFL1 / RFU, COG3 / Fold change vs veh, COG3 / RFU, DIAPH2 / Fold change vs veh, DIAPH2 / RFU, SKA2 / Fold change vs veh, SKA2 / RFU, AFF3 / Fold change vs veh, AFF3 / RFU, LMF1 / Fold change vs veh, LMF1 / RFU, IPO11 / Fold change vs veh, IPO11 / RFU, DFFB / Fold change vs veh, DFFB / RFU, FOXP1 / Fold change vs veh, FOXP1 / RFU, CARD8 / Fold change vs veh, CARD8 / RFU, STRN3 / Fold change vs veh, STRN3 / RFU, ADK / Fold change vs veh, ADK / RFU, RASSF2 / Fold change vs veh, RASSF2 / RFU, WIPF1 / Fold change vs veh, WIPF1 / RFU, LARP1B / Fold change vs veh, LARP1B / RFU, RASA1 / Fold change vs veh, RASA1 / RFU, RB1 / Fold change vs veh, RB1 / RFU, PPFIA1 / Fold change vs veh, PPFIA1 / RFU, MAT2A / Fold change vs veh, MAT2A / RFU, CCT5 / Fold change vs veh, CCT5 / RFU, WDR92 / Fold change vs veh, WDR92 / RFU, CUX1 / Fold change vs veh, CUX1 / RFU, TTC7A / Fold change vs veh, TTC7A / RFU, TMEM135 / Fold change vs veh, TMEM135 / RFU, DEPTOR / Fold change vs veh, DEPTOR / RFU, CPM / Fold change vs veh, CPM / RFU, DNAJB6 / Fold change vs veh, DNAJB6 / RFU, CACNA2D3 / Fold change vs veh, CACNA2D3 / RFU, DTX4 / Fold change vs veh, DTX4 / RFU, TFCP2 / Fold change vs veh, TFCP2 / RFU, GMCL1 /// GMCL1P1 / Fold change vs veh, GMCL1 /// GMCL1P1 / RFU, AEBP2 / Fold change vs veh, AEBP2 / RFU, SNHG1 /// SNORD22 /// SNORD25 /// SNORD26 /// SNORD27 /// SNORD28 /// SNORD29 /// SNORD31 / Fold change vs veh, SNHG1 /// SNORD22 /// SNORD25 /// SNORD26 /// SNORD27 /// SNORD28 /// SNORD29 /// SNORD31 / Fold change (Aza/veh), C12orf56 (ProbeSet 11735607_a_at) / Fold change (ACY-1035/veh), C12orf56 (ProbeSet 11735607_a_at) / Fold change (Aza/veh), FGFR1OP (ProbeSet 11751329_s_at) / Fold change (ACY-1035/veh), FGFR1OP (ProbeSet 11751329_s_at) / Fold change (Aza/veh), VPS36 (ProbeSet 11739960_a_at) / Fold change (ACY-1035/veh), VPS36 (ProbeSet 11739960_a_at) / RFU SYPL1 (11715823_x_at) / Fold change /veh SYPL1 (11715823_x_at) / RFU IGFBP7 (11715501_s_at) / Fold change /veh IGFBP7 (11715501_s_at) / RFU REEP3 (11722064_at) / Fold change /veh REEP3 (11722064_at) / RFU IGLL1 (11728026_x_at) / Fold change /veh IGLL1 (11728026_x_at): dose or concentration left out as unconfirmed
Settings: MV-4-11 cells, 48 hours

For `Nc1ncn([C@@H]2O[C@H](CO)[C@@H](O)[C@H]2O)c(=O)n1` [azacitidine], the “Fold change /veh C10orf10 (11716521_a_at)” value was 1.13.
